Numbers after ± are expanded uncertainties.
Conditions: for mass density: Fluid (supercritical or subcritical phases), Vibrating tube method; for vapor or sublimation pressure: Liquid

C=C(C)C [2-methylpropene]
Conditions | mass density [kg/m3]
328.22 K, 14997 kPa | 579.49 ± 1.2
328.22 K, 19998 kPa | 587.62 ± 1.3
328.22 K, 24989 kPa | 594.87 ± 1.3
328.22 K, 29993 kPa | 601.47 ± 1.3
328.22 K, 35002 kPa | 607.53 ± 1.4
333.22 K, 1303 kPa | 542.34 ± 1.1
333.22 K, 4983 kPa | 552.65 ± 1.1
333.22 K, 9997 kPa | 564.28 ± 1.2
333.22 K, 15001 kPa | 574.03 ± 1.2
333.22 K, 19998 kPa | 582.51 ± 1.3
333.22 K, 25001 kPa | 590.09 ± 1.3
333.22 K, 30012 kPa | 596.94 ± 1.3
333.22 K, 34994 kPa | 603.17 ± 1.4
338.22 K, 1401 kPa | 534.97 ± 1.1
338.22 K, 4983 kPa | 545.83 ± 1.1
338.22 K, 9985 kPa | 558.2 ± 1.2
338.22 K, 14988 kPa | 568.49 ± 1.2
338.22 K, 20002 kPa | 577.4 ± 1.2
338.22 K, 24995 kPa | 585.25 ± 1.3
338.22 K, 30004 kPa | 592.35 ± 1.3
338.22 K, 34989 kPa | 598.79 ± 1.4
338.23 K, 39972 kPa | 604.69 ± 1.4
343.22 K, 1507 kPa | 527.38 ± 1.1
343.22 K, 4990 kPa | 538.84 ± 1.1
343.22 K, 14984 kPa | 562.89 ± 1.2
343.22 K, 19992 kPa | 572.21 ± 1.2
343.22 K, 24986 kPa | 580.39 ± 1.3
343.23 K, 10002 kPa | 552.06 ± 1.2
343.23 K, 29994 kPa | 587.74 ± 1.3
343.23 K, 35010 kPa | 594.44 ± 1.4
348.23 K, 1624 kPa | 519.55 ± 1.1
348.23 K, 4982 kPa | 531.6 ± 1.1
348.23 K, 9996 kPa | 545.8 ± 1.1
348.23 K, 15003 kPa | 557.28 ± 1.2
348.23 K, 19988 kPa | 566.99 ± 1.2
348.23 K, 24994 kPa | 575.52 ± 1.3
348.23 K, 29995 kPa | 583.14 ± 1.3
348.23 K, 34998 kPa | 590.02 ± 1.4
353.23 K, 1750 kPa | 511.45 ± 1.1
353.23 K, 4999 kPa | 524.22 ± 1.1
353.23 K, 9995 kPa | 539.41 ± 1.1
353.23 K, 15002 kPa | 551.55 ± 1.2
353.23 K, 19988 kPa | 561.74 ± 1.2
353.23 K, 24993 kPa | 570.61 ± 1.3
353.23 K, 29992 kPa | 578.51 ± 1.3
353.23 K, 35002 kPa | 585.65 ± 1.4
358.23 K, 1880 kPa | 503.02 ± 1
358.23 K, 4995 kPa | 516.51 ± 1.1
358.23 K, 9992 kPa | 532.9 ± 1.1
358.23 K, 14994 kPa | 545.74 ± 1.2
358.23 K, 19987 kPa | 556.44 ± 1.2
358.23 K, 25000 kPa | 565.71 ± 1.3
358.23 K, 29992 kPa | 573.87 ± 1.3
358.23 K, 34986 kPa | 581.23 ± 1.4
363.23 K, 2029 kPa | 494.29 ± 1
363.23 K, 4995 kPa | 508.53 ± 1.1
363.23 K, 9990 kPa | 526.24 ± 1.1
363.23 K, 14992 kPa | 539.87 ± 1.2
363.23 K, 19984 kPa | 551.08 ± 1.2
363.23 K, 25007 kPa | 560.75 ± 1.3
363.23 K, 29987 kPa | 569.21 ± 1.3
363.23 K, 34996 kPa | 576.84 ± 1.4
368.23 K, 2186 kPa | 485.16 ± 1
368.23 K, 4992 kPa | 500.2 ± 1.1
368.23 K, 9984 kPa | 519.43 ± 1.1
368.23 K, 14990 kPa | 533.92 ± 1.2
368.23 K, 29990 kPa | 564.54 ± 1.3
368.24 K, 19992 kPa | 545.7 ± 1.2
368.24 K, 25001 kPa | 555.77 ± 1.2
368.24 K, 35000 kPa | 572.42 ± 1.4
373.23 K, 2351 kPa | 475.57 ± 0.99
373.23 K, 29996 kPa | 559.86 ± 1.3
373.23 K, 34996 kPa | 567.99 ± 1.3
373.24 K, 4995 kPa | 491.52 ± 1
373.24 K, 9984 kPa | 512.47 ± 1.1
373.24 K, 14991 kPa | 527.88 ± 1.1
373.24 K, 19998 kPa | 540.27 ± 1.2
373.24 K, 25004 kPa | 550.75 ± 1.2
373.24 K, 39995 kPa | 575.36 ± 1.4
378.24 K, 2531 kPa | 465.5 ± 0.98
378.24 K, 4999 kPa | 482.41 ± 1
378.24 K, 9996 kPa | 505.39 ± 1.1
378.24 K, 14983 kPa | 521.73 ± 1.1
378.24 K, 19996 kPa | 534.78 ± 1.2
378.24 K, 25004 kPa | 545.72 ± 1.2
378.24 K, 29995 kPa | 555.17 ± 1.3
378.24 K, 34988 kPa | 563.54 ± 1.3
383.24 K, 2689 kPa | 454.37 ± 0.95
383.24 K, 4984 kPa | 472.67 ± 1
383.24 K, 9995 kPa | 498.07 ± 1.1
383.24 K, 14986 kPa | 515.53 ± 1.1
383.24 K, 20004 kPa | 529.26 ± 1.2
383.24 K, 25006 kPa | 540.65 ± 1.2
383.24 K, 29986 kPa | 550.43 ± 1.3
383.24 K, 34992 kPa | 559.1 ± 1.3
388.24 K, 2901 kPa | 443.01 ± 0.94
388.24 K, 4994 kPa | 462.48 ± 0.98
388.24 K, 9997 kPa | 490.56 ± 1.1

Conditions | vapor or sublimation pressure [kPa]
328.93 K | 704.67 ± 2.8
337.82 K | 871.92 ± 3.4
348.26 K | 1100.8 ± 4.2
357.33 K | 1343.9 ± 5.1
364.25 K | 1545.1 ± 5.8
371.52 K | 1784.7 ± 6.7
380.19 K | 2094.5 ± 7.7
386.12 K | 2332.7 ± 8.6

Source: the NIST ThermoML archive (doi:10.1016/j.fluid.2004.09.013)
